Consider 1 molecule from patent US20120264817A1, “SOLUBILIZED FORMULATION OF DOCETAXEL WITHOUT TWEEN 80” (priority 2007, published 2012).

The solubility is how much of the substance goes into solution per volume.

The nature of series [1]: physical stability (onset of precipitation) of initial and final dilutions of docetaxel formulations. The format is physicochemical. Here is the method:
Observations: • 1. The concentrate turns waxy and viscous when stored at temperature below the room temperature, i.e., 22° C. To disperse this viscous mass, a large amount of WFI is needed to make the system suitable for subsequent dilution. So the first step of making a 10 mg/ml solution cannot be achieved with this liquid concentrate. • 2. To achieve a primary dilution of docetaxel of 10 mg/ml, the above concentrate was heated in a water bath to form a viscous liquid, and then diluted with 8 ml of water for injection. The primary dilution is stable for a period of not less than 8 hours, which was a stability condition stipulated in the innovators product. This solution, when further diluted with NS, achieves the targeted concentration range of 0.3-0.74 mg/ml of docetaxel in the final solution for administration. This solution is stable for a period of 24 hours as opposed to the stability of 4 hours with innovators product. In this example, we have achieved the target concentration of docetaxel for administration without the presence of polysorbate 80. • 3.
The concentrate is liquid at room temperature and turned waxy only when stored at 5° C. or below, but turned back to free flowing liquid in 5 minutes when kept at room temperature. • 2. During the initial dilution step to get 10 mg/ml, the contents of the vial turned into a thixotropic liquid within the vial. […]

Series [2] in a line: solubility studies with docetaxel in solvents/excipients. As to conditions: glycofurol, organic solvent or mixture. The text has this: In some instances a solubilizer can provide sufficient degree of dissolution that a separate hydrotrope or other solubilization aid is not needed, but this is generally not the case (i.e. a separate hydrotrope is usually desirable). […] The concentration of drug in solubilizer varies depending on the lipophilicity of drug. […] We have conducted the solubility studies in these excipients to understand how different excipients containing different functional groups are contributing to the solubility of docetaxel. A solubilizer can also act as a hydrotrope (on dilution with infusion fluid) if it is used in the sufficiently large quantities. […] In the table below and the rest of this specification, the terms “solubilizer” and “hydrotrope” will be used with reference to concentrates (both initial and intermediate) unless specifically indicated otherwise or the context so requires.

The conditions of series [3]: docetaxel as marketed by Sanofi-Aventis; cited from earlier work.

Consider `CC(=O)O[C@@]12CO[C@@H]1C[C@H](O)[C@@]1(C)C(=O)[C@H](O)C3=C(C)[C@@H](OC(=O)[C@H](O)[C@@H](NC(=O)OC(C)(C)C)c4ccccc4)C[C@@](O)([C@@H](OC(=O)c4ccccc4)[C@H]21)C3(C)C` [docetaxel, (2R,3S)—N-carboxy-3-phenylisoserine, N-tert-butyl ester, 13-ester with 5beta-20-epoxy-1,2α,4,7β,10β,13α-hexahyciroxytax-11-en-9-one 4-acetate 2-benzoate, trihydrate], for which the “behaviour on dilution to administration concentrations” value in series [1] (about 10 mg/ml solution in glycofurol, diluted with IV fluids) is “will not precipitate out”; in series [1] (about 200 mg/ml liquid concentrate in glycofurol, diluted with water), “precipitates out”. For the same molecule, in series [2], the solubility was ~200 mg/mL. The lipophilicity result in series [3] is on record as “highly lipophilic”. Further, in series [3], the solubility in water entry is reported as “practically insoluble in water”.
